This note sets out measurements from patent US20140296212A1, “SUBSTITUTED PHENOXYPROPYLCYCLOAMINE DERIVATIVES AS HISTAMINE-3 (H3) RECEPTOR LIGANDS” (CEPHALON, INC., priority 2009, published 2014).

A word on the Ki: it is the dissociation constant of the complex between target and ligand, obtained from inhibition or displacement. The low end stands for higher affinity, the high end for lower affinity.

T1 sequence (Q9QYN8 whole entry): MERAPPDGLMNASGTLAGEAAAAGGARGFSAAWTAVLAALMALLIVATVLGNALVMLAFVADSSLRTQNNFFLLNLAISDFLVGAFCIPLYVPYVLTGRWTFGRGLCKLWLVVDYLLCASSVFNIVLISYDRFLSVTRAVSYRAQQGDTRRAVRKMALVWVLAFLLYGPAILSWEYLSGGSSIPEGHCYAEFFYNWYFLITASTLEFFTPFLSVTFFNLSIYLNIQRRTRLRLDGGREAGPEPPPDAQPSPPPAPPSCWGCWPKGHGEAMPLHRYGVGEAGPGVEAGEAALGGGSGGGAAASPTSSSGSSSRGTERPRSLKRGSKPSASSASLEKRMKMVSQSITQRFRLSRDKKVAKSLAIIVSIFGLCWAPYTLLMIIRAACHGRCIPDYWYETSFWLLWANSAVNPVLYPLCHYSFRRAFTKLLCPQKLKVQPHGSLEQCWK

The first assay has as its target T1, rat histamine H3 receptor (Rattus norvegicus, UniProt Q9QYN8).
T1 construct: encoding the entire 445-amino-acid rat histamine H3 receptor; expressed in transfected cells
In words: Rat H3 radioligand binding ([3H]-N-alpha-methylhistamine, SPA).
Conditions: not given
The text has this: The rat H3 receptor cDNA was PCR amplified from reverse-transcribed RNA pooled from rat thalamus, hypothalamus, striatum and prefrontal cortex with a sequence corresponding to by #338-1672 of Genbank file #NM_053506, encoding the entire 445-amino-acid rat histamine H3 receptor. This was engineered into the pIRES-neo3 mammalian expression vector, which was stably transfected into the CHO-A3 cell line (Euroscreen, Belgium), followed by clonal selection by limiting dilution. Cells were harvested and cell pellets were frozen (−80° C.). Cell pellets were resuspended in 5 mM Tris-HCl, pH 7.5 with 5 nM EDTA and a cocktail of protease inhibitors (Complete Protease Inhibitor Tablets, Roche Diagnostics). Cells were disrupted using a polytron cell homogenizer and the suspension was centrifuged at 1000×g for 10 minutes at 4° C. The pellet was discarded and the supernatant centrifuged at 40,000×g for 30 min at 4° C. This membrane pellet was washed in membrane buffer containing 50 mM Tris-HCl, pH 7.5 with 0.6 mM EDTA, 5 mM MgCl2 and protease inhibitors, recentrifuged as above and the final pellet resuspended in membrane buffer plus 250 mM sucrose and frozen at −80° C.
(§1) Membranes were resuspended in 50 mM Tris HCl (pH 7.4), 5 mM MgCl2, 0.1% BSA. The membrane suspensions (10 μg protein per well) were incubated in a 96 well microtiter plate with [^3H]-N-alpha-methylhistamine (approximately 1 nM final concentration), test compounds at various concentrations (0.01 nM-30 μM) and scintillation proximity beads (Perkin Elmer, FlashBlueGPCR Scintillating Beads) in a final volume of 80 μl for 4 hours at room temperature, protected from light. Non-specific binding was determined in the presence of 10 μM clobenpropit. Radioligand bound to receptor, and therefore in proximity to the scintillation beads, was measured using a MicroBeta scintillation counter.
With `C[C@H]1CCCN1CCCOc1ccc(C(=O)CN2CCOCC2)cc1` [Example 42, 1-{4-[3-((S)-2-Methyl-pyrrolidin-1-yl)-propoxy]-phenyl}-2-morpholin-4-yl-ethanone], the Ki fell in the range of 501 to 1000 nM. `C[C@@H]1CCCN1CCCOc1ccc(C(=O)CN2CCOCC2)cc1` [Example 41, 1-{4-[3-((R)-2-Methyl-pyrrolidin-1-yl)-propoxy]-phenyl}-2-morpholin-4-yl-ethanone] came in with a Ki of 0.1 to 100 nM. On the same count and under the same terms, the figure for `CC1CCCN1CCCOc1ccc(C(=O)CN2CCOCC2)cc1` (centres unmarked) [Example 1, 1-{4-[3-(2-Methyl-pyrrolidin-1-yl)-propoxy]-phenyl}-2-morpholin-4-yl-ethanone] is 0.1 to 100 nM.

The target of a further assay is T2, human H3 receptor (Homo sapiens, UniProt Q9Y5N1).
T2 construct: expressed in transfected cells
T2 sequence (Q9Y5N1 whole entry): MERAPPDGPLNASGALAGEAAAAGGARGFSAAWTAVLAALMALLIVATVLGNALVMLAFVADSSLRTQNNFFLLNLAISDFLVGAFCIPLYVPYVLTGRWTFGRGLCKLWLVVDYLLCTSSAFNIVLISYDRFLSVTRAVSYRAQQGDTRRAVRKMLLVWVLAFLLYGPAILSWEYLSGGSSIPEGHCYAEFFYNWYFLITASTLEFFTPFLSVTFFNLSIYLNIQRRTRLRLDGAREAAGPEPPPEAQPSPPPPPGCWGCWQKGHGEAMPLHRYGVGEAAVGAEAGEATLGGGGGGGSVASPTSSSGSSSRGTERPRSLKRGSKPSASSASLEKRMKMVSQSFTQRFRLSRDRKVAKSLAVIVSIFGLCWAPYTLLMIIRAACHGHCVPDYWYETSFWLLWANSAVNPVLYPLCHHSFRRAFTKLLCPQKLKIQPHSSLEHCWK
Description: Human H3 radioligand binding ([3H]-N-alpha-methylhistamine, SPA). Conditions: membranes of CHO cells expressing human H3. On the procedure: Cell pellets were resuspended in 5 mM Tris-HCl, pH 7.5 with 5 nM EDTA and a cocktail of protease inhibitors (Complete Protease Inhibitor Tablets, Roche Diagnostics). Cells were disrupted using a polytron cell homogenizer and the suspension was centrifuged at 1000×g for 10 minutes at 4° C. The pellet was discarded and the supernatant centrifuged at 40,000×g for 30 min at 4° C. This membrane pellet was washed in membrane buffer containing 50 mM Tris-HCl, pH 7.5 with 0.6 mM EDTA, 5 mM MgCl2 and protease inhibitors, recentrifuged as above and the final pellet resuspended in membrane buffer plus 250 mM sucrose and frozen at −80° C.
as §1
`CC1CCCC(C)N1CCCOc1ccc(C(=O)CN2CCCCC2)cc1` (centres unmarked) [Example 11, 1-{4-[3-(2,6-Dimethyl-piperidin-1-yl)-propoxy]-phenyl}-2-piperidin-1-yl-ethanone] gave a Ki of 0.1 to 100 nM. Still for that read-out and setting: then `CC(C(=O)c1ccc(OCCCN2CCCC2)cc1)N1CCCCC1` (centres unmarked) [Example 14, 2-Piperidin-1-yl-1-[4-(3-pyrrolidin-1-yl-propoxy)-phenyl]-propan-1-one], with 0.1 to 100 nM; and `CC(C(=O)c1ccc(OCCCN2CCCCC2)cc1)N1CCN(c2ccccc2)CC1` (centres unmarked) [Example 31, 2-(4-Phenyl-piperazin-1-yl)-1-[4-(3-piperidin-1-yl-propoxy)-phenyl]-propan-1-one], with 0.1 to 100 nM. On the same count and under the same terms, the figure for `C[C@@H]1CCCN1CCCOc1ccc(C(=O)CN2CCc3ccccc3C2)cc1` [Example 9, 2-(3,4-Dihydro-1H-isoquinolin-2-yl)-1-{4-[3-((R)-2-methyl-pyrrolidin-1-yl)-propoxy]-phenyl}-ethanone] is 0.1 to 100 nM. The molecule `CC1CCCN1CCCOc1ccc(C(=O)CN2CCN(c3ccccc3)CC2)cc1` (centres unmarked) [Example 18, 1-{4-[3-(2-Methyl-pyrrolidin-1-yl)-propoxy]-phenyl}-2-(4-phenyl-piperazin-1-yl)-ethanone] returned a Ki of 0.1 to 100 nM.

In turn, `O=C(CN1CCCc2ccccc21)c1ccc(OCCCN2CCCCC2)cc1` [Example 7, 2-(3,4-Dihydro-2H-quinolin-1-yl)-1-[4-(3-piperidin-1-yl-propoxy)-phenyl]-ethanone] gave a Ki of 0.1 to 100 nM. As for `O=C(CN1Cc2ccccc2C1)c1ccc(OCCCN2CCCCC2)cc1` [Example 6, 2-(1,3-Dihydro-isoindol-2-yl)-1-[4-(3-piperidin-1-yl-propoxy)-phenyl]-ethanone], the Ki fell in the range of 0.1 to 100 nM. Consider `CC1CCCCN1CCCOc1ccc(C(=O)CN2CCCCC2)cc1` (centres unmarked) [Example 10, 1-{4-[3-(2-Methyl-piperidin-1-yl)-propoxy]-phenyl}-2-piperidin-1-yl-ethanone], for which the inhibitory constant (Ki) was in the range of 0.1 to 100 nM. `O=C(CN1CCc2ccccc2C1)c1ccc(OCCCN2CCCC2)cc1` [Example 5, 2-(3,4-Dihydro-1H-isoquinolin-2-yl)-1-[4-(3-pyrrolidin-1-yl-propoxy)-phenyl]-ethanone] displayed a Ki of 0.1 to 100 nM. Still for that read-out and setting: the figure for `CO/N=C(\CN1CCCCC1)c1ccc(OCCCN2CCC[C@H]2C)cc1` [Example 159] is 0.1 to 100 nM; for `C[C@H]1CCCN1CCCOc1ccc(C(=O)CN2CCCCC2)cc1` [Example 13, 1-{4-[3-((S)-2-Methyl-pyrrolidin-1-yl)-propoxy]-phenyl}-2-piperidin-1-yl-ethanone] it is 0.1 to 100 nM.

The molecule `O=C(CN1CCc2ccccc2C1)c1ccc(OCCCN2CCCCC2)cc1` [Example 4, 2-(3,4-Dihydro-1H-isoquinolin-2-yl)-1-[4-(3-piperidin-1-yl-propoxy)-phenyl]-ethanone] returned a Ki of 0.1 to 100 nM. In turn, `C[C@@H]1CC[C@@H](C)N1CCCOc1ccc(C(=O)CN2CCCCC2)cc1` [Example 12, 1-{4-[3-((2R,5R)-2,5-Dimethyl-pyrrolidin-1-yl)-propoxy]-phenyl}-2-piperidin-1-yl-ethanone] yielded a Ki of 0.1 to 100 nM. `O=C(CN1CCN(c2ccccc2)CC1)c1ccc(OCCCN2CCCC2)cc1` [Example 17, 2-(4-Phenyl-piperazin-1-yl)-1-[4-(3-pyrrolidin-1-yl-propoxy)-phenyl]-ethanone] came in with a Ki of 0.1 to 100 nM. With `CC1CCCN1CCCOc1ccc(C(=O)C(C)N2CCCC2)cc1` (centres unmarked) [Example 24, 1-{4-[3-(2-Methyl-pyrrolidin-1-yl)-propoxy]-phenyl}-2-pyrrolidin-1-yl-propan-1-one], the Ki is 0.1 to 100 nM.

`CC(C(=O)c1ccc(OCCCN2CCCCC2)cc1)N1CCSCC1` (centres unmarked) [Example 34, 1-[4-(3-Piperidin-1-yl-propoxy)-phenyl]-2-thiomorpholin-4-yl-propan-1-one] yielded a Ki of 0.1 to 100 nM. For the molecule `CC1CCCN1CCCOc1ccc(/C(CN2CCN(c3ccccc3)CC2)=N/OC(C)(C)C)cc1` (centres unmarked) [Example 166], the Ki fell in the range of 0.1 to 100 nM. Same read-out and setting: then `C[C@@H]1CCCN1CCCOc1ccc(/C(CN2CCOCC2)=N/OC2CCCCC2)cc1` [Example 170], with 0.1 to 100 nM; and `O=C(CN1CCCCC1)c1ccc(OCCCN2CCCCC2)cc1` [Example 2, 2-Piperidin-1-yl-1-[4-(3-piperidin-1-yl-propoxy)-phenyl]-ethanone], with 0.1 to 100 nM. `CC(C(=NOCc1ccccc1)c1ccc(OCCCN2CCCCC2)cc1)N1CCCCC1` (centres unmarked) [Example 164] displayed a Ki of 0.1 to 100 nM. Still for that read-out and setting: the figure for `CC(C(=O)c1ccc(OCCCN2CCCC2)cc1)N1CCCC1` (centres unmarked) [Example 23, 2-Pyrrolidin-1-yl-1-[4-(3-pyrrolidin-1-yl-propoxy)-phenyl]-propan-1-one] is 0.1 to 100 nM; for `CC(C(=O)c1ccc(OCCCN2CCC[C@@H]2C)cc1)N1CCCCC1=O` (stereo partly drawn) [Example 36, 1-(1-Methyl-2-{4-[3-((S)-2-methyl-pyrrolidin-1-yl)-propoxy]-phenyl}-2-oxo-ethyl)-piperidin-2-one] it is 101 to 500 nM. In turn, `CC(C)N1CCN(CCCOc2ccc(C(=O)CN3CCCCC3)cc2)CC1` [Example 16, 1-{4-[3-(4-Isopropyl-piperazin-1-yl)-propoxy]-phenyl}-2-piperidin-1-yl-ethanone] yielded a Ki of 0.1 to 100 nM. In turn, `CC(C(=O)c1ccc(OCCCN2CCCCC2)cc1)N1CCOCC1` (centres unmarked) [Example 26, 2-Morpholin-4-yl-1-[4-(3-piperidin-1-yl-propoxy)-phenyl]-propan-1-one] displayed a Ki of 0.1 to 100 nM. For the molecule `O=C(CN1CCCCC1)c1ccc(OCCCN2CCCC2)cc1` [Example 3, 2-Piperidin-1-yl-1-[4-(3-pyrrolidin-1-yl-propoxy)-phenyl]-ethanone], the Ki lay in the range of 0.1 to 100 nM. Regarding `CC(=O)N1CCN(C(C)C(=O)c2ccc(OCCCN3CCCC3C)cc2)CC1` (centres unmarked) [Example 33, 2-(4-Acetyl-piperazin-1-yl)-1-{4-[3-(2-methyl-pyrrolidin-1-yl)-propoxy]-phenyl}-propan-1-one], the Ki was 0.1 to 100 nM.

Turning to `CC(=O)N1CCN(C(C)C(=O)c2ccc(OCCCN3CCCCC3)cc2)CC1` (centres unmarked) [Example 32, 2-(4-Acetyl-piperazin-1-yl)-1-[4-(3-piperidin-1-yl-propoxy)-phenyl]-propan-1-one], the Ki fell in the range of 0.1 to 100 nM. Regarding `CC(C(=O)c1ccc(OCCCN2CCCC2)cc1)N1CCN(c2ccccc2)CC1` (centres unmarked) [Example 30, 2-(4-Phenyl-piperazin-1-yl)-1-[4-(3-pyrrolidin-1-yl-propoxy)-phenyl]-propan-1-one], the Ki lay in the range of 0.1 to 100 nM. In the case of `CON=C(c1ccc(OCCCN2CCCCC2)cc1)C(C)N1CCCCC1` (centres unmarked) [Example 163], the Ki fell in the range of 0.1 to 100 nM.

For `CC1CCCN1CCCOc1ccc(C(=O)C(C)N2CCSCC2)cc1` (centres unmarked) [Example 35, 1-{4-[3-(2-Methyl-pyrrolidin-1-yl)-propoxy]-phenyl}-2-thiomorpholin-4-yl-propan-1-one], the Ki lay within 0.1 to 100 nM. On the same count and under the same terms, then `CO/N=C(/CN1CCCCC1)c1ccc(OCCCN2CCC[C@H]2C)cc1` [Example 161], with 0.1 to 100 nM; and `CC(C(=O)c1ccc(OCCCN2CCCC2)cc1)N1CCOCC1` (centres unmarked) [Example 25, 2-Morpholin-4-yl-1-[4-(3-pyrrolidin-1-yl-propoxy)-phenyl]-propan-1-one], with 0.1 to 100 nM; and `CC(C)O/N=C(\CN1CCOCC1)c1ccc(OCCCN2CCC[C@H]2C)cc1` [Example 171], with 0.1 to 100 nM. Molecule `CON=C(c1ccc(OCCCN2CCCC2C)cc1)C(C)N1CCCCC1` (centres unmarked) [Example 169] returned a Ki of 0.1 to 100 nM. Regarding `CC1CCCN1CCCOc1ccc(C(=O)C(C)N2CCN(c3ccccc3)CC2)cc1` (centres unmarked) [Example 28, 1-{4-[3-(2-Methyl-pyrrolidin-1-yl)-propoxy]-phenyl}-2-(4-phenyl-piperazin-1-yl)-propan-1-one], the Ki lay in the range of 0.1 to 100 nM.
